Experimental data taken from paper PMC4844572 (SpringerPlus, 2016).

Tested on: EstSTR1
Format: biochemical, uncultured bacterium
Details: competitive against 100 μM cephalothin; 10 mM MES pH 6.8, bovine serum albumin 20 μg/ml, enzyme 396 μM as printed; stands in Km column, footnote gives Ki

CO/N=C(\C(=O)N[C@@H]1C(=O)N2C(C(=O)O)=C(COC(C)=O)CS[C@H]12)c1csc(N)n1 [TAX, cefotaxime]
Km (μM) / Wild: 0.90 ± 0.004 µM
